Laboratory results: patent US12297293B2, “Peptide compounds targeting PD-1 receptor as well as preparation and applications thereof” (NANTONG UNIVERSITY, priority 2021, dated 2025)
Ends that are not written are not given here.

Experiments:
[1] = tested on: acetic acid-induced visceral pain; assay: Acetic acid-induced visceral pain (writhing) test; type: in vivo, ICR male mice
Method: According to the present invention, placing ICR male mice in a weight range of 25-30 g in an observation room for 15 min, and injecting intrathecally with different doses of the compound 4 (5 nmol, 10 nmol, 30 nmol) or saline; after 5 min, injecting intraperitoneally with 0.6% glacial acetic acid solution (10 mL/kg), and then sending to the observation room; counting the number of body writhing within 20 min.
The experimental results are shown in FIG. 4, the number of writhing in mice decreased with the increase of the administered dose. […] Intrathecally injected at a dose of 30 nmol, the compound 4 inhibited the writhing behavior of mice by 63%.

DRG neurons = assay: DRG neuronal calcium imaging experiment; type: cell-based, ICR mice; details: DRG neurons pretreated with 1 nM; high K+ solution; Fluo-4/AM, laser confocal
Source text: The inhibitory effect of compounds 1-5 on pain signaling was characterized by DRG neuronal calcium imaging, comprising the following steps:
performing acute isolation on 3-week-old female ICR mice, and extracting DRG in a sterile bench; lysing sequentially by collagenase A and trypsin; terminating trypsin lysis with a complete medium containing serum; centrifuging at 800r, discarding supernatant, and adding Neurobasal medium (containing 2% B27, Clutanine 1%, and 1% penicillin-streptomycin double antibody solution) and thoroughly mixing; then culturing in pre-prepared Petri dishes lined with PDL for 48 h; labeling DRG neurons with Flou-4/AM prior to the experiment, and pre-treating with different doses of the compounds 1-5/equivalent volume of HBSS before stimulating the DRG neurons with high K+ solution; and then detecting changes of intracellular free calcium ion concentration of DRG neurons under laser confocal.

[2] = tested on: formalin-induced inflammatory pain; assay: Formalin-induced inflammatory pain test; type: in vivo, ICR male mice
Method: According to the present invention, placing ICR male mice in a weight range of 25-30 g in an observation room for 15 min, and injecting intrathecally with different doses of the compound 4 (5 nmol, 10 nmol, 30 nmol) or saline; after 5 min, injecting subcutaneously with 5% formalin (20 μl) through the plantar surface of the foot, and then immediately sending to the observation room; counting an accumulated time of pain behaviors (licking, biting, and flinging the injected foot) during the time period of 0-10 min and 10-45 min, respectively.
0-10 min after formalin injection is a phase I, which is mainly triggered by direct activation of injurious neurons; and 10-35 min is phase II, which is mainly triggered by formalin-induced inflammatory response.

## SYGGADYKR [compound 4]
[1]; intrathecal 5, 10, 30 nmol, 0.6% acetic acid i.p. 10 mL/kg, writhing within 20 min
  number of abdominal writhing: significantly reduce the number of abdominal writhing in mice in a dose-dependent manner
[1]; intrathecal dose of 30 nmol
  inhibition of writhing behavior: 63%
[1]; intrathecal injection, acetic acid writhing
  ED50: 13.5 (11.88-15.34) nmol
DRG neurons
  inhibitory effect on the increase of intracellular Ca2+ concentration induced by high K+: significant inhibitory effect
[2]; intrathecal 5, 10, 30 nmol, 5% formalin 20 μl plantar, phase I and phase II, vs control group
  pain behavior (licking, biting and flinging the injected foot) in both phases: significantly shortened
[2]; intrathecal injection, formalin phase II
  ED50 (median effective dose) for pain in phase II: 6.28 (5.34-7.39) nmol
